Experimental data as given in ChEMBL document CHEMBL1131772, “Synthesis of 8-Oxa analogues of norcocaine endowed with interesting cocaine-like activity” (Bioorg Med Chem Lett, 1999).

Assays:
[1] = molecular target: T1, Sodium-dependent dopamine transporter (Rattus norvegicus, UniProt P23977); experiment: Inhibition of high affinity uptake of [3H]dopamine into striatal nerve endings (synaptosomes); type: subcellular, Brain
[2] = molecular target: T1, Sodium-dependent dopamine transporter; experiment: Binding affinity towards dopamine transporter using [3H]- mazindol as radioligand in rat striatal membranes; type: cell membranes, Striatum, Membrane

T1 sequence (P23977 whole entry): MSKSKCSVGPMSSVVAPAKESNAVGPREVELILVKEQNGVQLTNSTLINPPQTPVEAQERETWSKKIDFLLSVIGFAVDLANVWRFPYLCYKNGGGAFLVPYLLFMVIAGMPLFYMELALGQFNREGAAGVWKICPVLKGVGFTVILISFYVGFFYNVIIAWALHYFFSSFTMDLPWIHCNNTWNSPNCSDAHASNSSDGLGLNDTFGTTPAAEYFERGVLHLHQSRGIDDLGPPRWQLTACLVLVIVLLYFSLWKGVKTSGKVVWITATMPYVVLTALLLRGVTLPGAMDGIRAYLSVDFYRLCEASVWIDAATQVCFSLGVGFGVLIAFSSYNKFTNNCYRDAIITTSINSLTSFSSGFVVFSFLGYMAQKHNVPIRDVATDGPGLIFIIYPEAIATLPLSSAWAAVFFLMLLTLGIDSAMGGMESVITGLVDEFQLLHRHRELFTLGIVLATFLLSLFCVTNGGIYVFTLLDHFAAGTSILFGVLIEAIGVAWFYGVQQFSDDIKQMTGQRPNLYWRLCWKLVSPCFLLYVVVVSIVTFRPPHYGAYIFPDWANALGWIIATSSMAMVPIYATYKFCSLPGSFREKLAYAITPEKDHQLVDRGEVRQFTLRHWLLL

SMILES | Ki [1] | Ki [2]
COC(=O)[C@@H]1C2CCC(C[C@H]1OC(=O)c1ccccc1)O2 (some centres not stated) | 23 µM | 34 µM
COC(=O)[C@H]1C2CCC(C[C@H]1OC(=O)c1ccccc1)O2 (some centres not stated) | 35 µM | 38 µM
COC(=O)[C@@H]1C2CCC(C[C@@H]1OC(=O)c1ccccc1)O2 (stereo in doubt; (+)) | 9.4 µM | 3.1 µM
COC(=O)[C@H]1C2CCC(C[C@@H]1OC(=O)c1ccccc1)O2 (stereo in doubt; (+)) | 47.7 µM | 29.4 µM
COC(=O)[C@@H]1C2CCC(C[C@@H]1OC(=O)c1ccccc1)O2 (stereo in doubt; (-)) | 8.5 µM | 4.2 µM
COC(=O)[C@H]1C2CCC(C[C@@H]1OC(=O)c1ccccc1)O2 (stereo in doubt; (-)) | 6 µM | 4.7 µM
